Article PMC7642680, “The Nontypeable Haemophilus influenzae Major Adhesin Hia Is a Dual-Function Lectin That Binds to Human-Specific Respiratory Tract Sialic Acid Glycan Receptors” (mBio, 2020)
Where two headings read alike, the source gives them in different places.

Legend:
[1] = biological target: T1, Hia (full-length, expressed on E. coli BL21) (Haemophilus influenzae, UniProt Q8GM79); assay: SPR, Hia-expressing BL21 cells immobilised (Biacore C1 chip); format: cell-based; conditions: 1x PBS pH 7.4; single-cycle kinetics; whole cells
T1 construct: trimeric autotransporter

[2] = biological target: T2, Hia (full-length, expressed on E. coli BL21) (Haemophilus influenzae, UniProt Q8GM79, A619R); conditions: read-out: 2-3 SLN-Ac; 1x PBS pH 7.4; whole cells
Description: (§1) SPR, Hia-expressing BL21 cells immobilised (Biacore C1 chip) on Hia (full-length, expressed on E. coli BL21)

[3] = biological target: Hia (full-length, expressed on E. coli BL21) (Haemophilus influenzae, UniProt Q8GM79, D618K); conditions: 1x PBS pH 7.4, whole cells
Description: as §1

[4] = biological target: Hia BD1 (binding domain 1) (Haemophilus influenzae, UniProt Q8GM79); assay: SPR, purified BD1 immobilised (Biacore CM5 amine capture); conditions: 1x PBS pH 7.4; single-cycle kinetics
[5] = biological target: T2, Hia (full-length, expressed on E. coli BL21); conditions: read-out: NB, OneStep injection at 10 μM, whole cells
Description: SPR, OneStep injection, Hia-expressing BL21 cells on Hia (full-length, expressed on E. coli BL21)

For `CC(=O)N[C@H]1[C@H]([C@H](O)[C@H](O)CO)O[C@@](O[C@H]2[C@@H](O)[C@@H](CO)O[C@@H](O[C@H]3[C@H](O)[C@@H](NC(C)=O)C(O)O[C@@H]3CO)[C@@H]2O)(C(=O)O)C[C@@H]1O` (stereo partly shown) [2-3 SLN-Ac], the Kd [1] was 2030 ± 443 nM, the Kd [2] was 3040 ± 700 nM and the Kd ([3]; read-out: 2-3 SLN-Ac) was 842 ± 178 nM.

`CC(=O)N[C@H]1[C@H](O[C@H]2[C@@H](O)[C@@H](CO)O[C@@H](O[C@H]3[C@H](O)[C@@H](O)C(O)O[C@@H]3CO)[C@@H]2O)O[C@H](CO)[C@@H](O[C@@H]2O[C@H](CO)[C@H](O)[C@H](O[C@@]3(C(=O)O)C[C@H](O)[C@@H](NC(C)=O)[C@H]([C@H](O)[C@H](O)CO)O3)[C@H]2O)[C@@H]1O` (stereo partly shown) [2-3 Ac-SLNnT] showed a Kd [1] of 2030 ± 1490 nM.

With `CC(=O)N[C@H]1C(O)O[C@H](CO)[C@@H](O[C@@H]2O[C@H](CO)[C@H](O)[C@H](O[C@@]3(C(=O)O)C[C@H](O)[C@@H](NC(=O)CO)[C@H]([C@H](O)[C@H](O)CO)O3)[C@H]2O)[C@@H]1O` (stereo partly shown) [2-3 SLN-Gc] the Kd [1] was 10100 ± 320 nM.

For `CC(=O)N[C@H]1[C@H](O[C@H]2[C@@H](O)[C@@H](CO)O[C@@H](O[C@H]3[C@H](O)[C@@H](O)C(O)O[C@@H]3CO)[C@@H]2O)O[C@H](CO)[C@@H](O[C@@H]2O[C@H](CO)[C@H](O)[C@H](O[C@@]3(C(=O)O)C[C@H](O)[C@@H](NC(=O)CO)[C@H]([C@H](O)[C@H](O)CO)O3)[C@H]2O)[C@@H]1O` (stereo partly shown) [2-3 Gc-SLNnT], the Kd [1] was 5440 ± 1110 nM.

`CC(=O)N[C@H]1[C@H]([C@H](O)[C@H](O)CO)O[C@](OC[C@H]2O[C@@H](O[C@H]3[C@H](O)[C@@H](NC(C)=O)C(O)O[C@@H]3CO)[C@H](O)[C@@H](O)[C@H]2O)(C(=O)O)C[C@@H]1O` (stereo partly shown) [2-6 SLN-Ac] was tested, and the Kd [1] was 185 ± 59.9 nM, the Kd [4] was 64.9 ± 5.6 nM and the Kd ([3]; read-out: 2-6 SLN-Ac) was 21 ± 1 nM. For the same compound, the Kd [5] was greater than 10000 nM.
